Assay results reported in patent US9486422B2, “Small molecule inhibitors of Mcl-1 and the uses of thereof” (THE REGENTS OF THE UNIVERSITY OF MICHIGAN, priority 2011, dated 2016).
Read-outs that look alike come from different tables or passages of the source.

Assays:
[1] = target: Mcl-1 (Homo sapiens, UniProt Q07820); assay: FP-based binding assay, Mcl-1
[2] = target: T1, A1/Bfl-1 (Homo sapiens, UniProt Q16548); assay: FP-based binding assay, A1/Bfl-1
T1 sequence (Q16548 1-151): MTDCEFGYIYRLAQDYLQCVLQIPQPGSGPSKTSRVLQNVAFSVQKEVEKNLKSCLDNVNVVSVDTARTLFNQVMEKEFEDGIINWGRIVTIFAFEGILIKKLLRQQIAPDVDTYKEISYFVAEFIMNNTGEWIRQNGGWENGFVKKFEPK

[3] = target: T2, Bcl-w (Homo sapiens, UniProt Q92843); assay: FP-based binding assay, Bcl-w
T2 sequence (Q92843 1-155): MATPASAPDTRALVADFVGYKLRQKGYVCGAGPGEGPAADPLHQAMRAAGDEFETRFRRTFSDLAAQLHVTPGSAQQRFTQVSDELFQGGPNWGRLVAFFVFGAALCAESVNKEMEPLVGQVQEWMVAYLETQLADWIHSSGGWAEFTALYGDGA

[4] = target: T3, cellular Mcl-1 protein (2LMP cell lysate) (Homo sapiens, UniProt Q07820); assay: Biotin-streptavidin pull-down with biotin-labeled Noxa BH3 peptide; type: binding
T3 construct: endogenous in cells; host or cells: 2LMP (subclone of MDA-MB-231) cell lysate
T3 sequence (Q07820 whole entry): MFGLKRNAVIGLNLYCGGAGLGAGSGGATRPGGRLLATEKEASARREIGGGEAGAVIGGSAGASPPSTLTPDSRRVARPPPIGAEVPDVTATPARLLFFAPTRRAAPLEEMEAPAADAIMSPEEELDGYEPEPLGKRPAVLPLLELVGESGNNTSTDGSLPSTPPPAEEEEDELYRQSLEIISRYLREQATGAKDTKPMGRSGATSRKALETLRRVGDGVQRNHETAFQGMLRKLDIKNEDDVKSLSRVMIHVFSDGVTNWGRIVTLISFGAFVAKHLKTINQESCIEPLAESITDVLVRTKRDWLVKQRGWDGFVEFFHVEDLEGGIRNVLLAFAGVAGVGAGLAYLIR
Protocol: Human breast cancer 2LMP cells, a subclone of the MDA-MB-231 cell line, were lysed in CHAPS buffer (10 mM HEPES (pH 7.4), 2.5 mM EDTA, 150 mM NaCl, 1.0% CHAP). Pre-cleared cell lysates were incubated with different concentrations of tested compounds, followed by incubation with biotinylated Noxa BH3 peptide (residues 18-43) and streptavidin-agarose beads to pull-down Mcl-1 protein bound to Noxa peptide. Beads were washed with CHAPS buffer, and Mcl-1 protein was eluted by boiling in SDS-PAGE sample buffer and analyzed by Western blotting using Mcl-1 antibody (Santa Cruz). DMSO alone was used as a control for nonspecific pull-down.

[5] = system: BxPC-3; assay: Cell growth inhibition (WST-8), BxPC-3; type: cell-based; conditions: Homo sapiens, BXPC-3, 96 h; 4 days treatment
Protocol: (§1) Human PC cell lines AsPC-1, BxPC-3 and Capan-2 were cultured in RPMI 1640 medium, while Panc-1 and MiaPaCa were cultured in DMEM medium (Life Technologies), all supplemented with 10% fetal bovine serum (Thermo Scientific HyClone). The rate of cell growth inhibition after treatment with increasing concentrations of the tested compounds was determined by WST-8 assay as described in the manufacturers protocol (Dojindo Molecular Technologies Inc.).

[6] = system: Panc-1; assay: Cell growth inhibition (WST-8), Panc-1; type: cell-based; conditions: Homo sapiens, PANC-1, 96 h; 4 days treatment
Protocol: as §1

[7] = system: MiaPaCa-2; assay: Cell growth inhibition (WST-8), MiaPaCa-2; type: cell-based; conditions: Homo sapiens, MIA PaCa-2, 96 h; 4 days treatment
Protocol: as §1

[8] = system: Panc-1 cells; assay: Induction of apoptosis, Annexin V/PI, Panc-1; type: cell-based, human
Protocol: An Annexin-V-FLUOS/Propidium iodide staining kit and ELISA detection kit (Roche Applied Science) were used to detect apoptosis in PC cells. Cells were treated with Mcl-1 inhibitors for different time points, harvested, washed with PBS and apoptosis was quantified according to manufacturer's protocol.

[9] = system: cytochrome c and Smac release in Panc-1 cells; assay: Release of cytochrome c and Smac from mitochondria (Western blot); type: cell-based, human; conditions: 24 h treatment
Protocol: The cells were treated and harvested at the indicated time points after treatment. Total cell lysates were subjected to electrophoresis onto SDS-containing 4-20% polyacrylamide gels (Invitrogen), and transferred to polyvinylidene difluoride (PVDF) membranes (Thermo Scientific). Following blocking in 5% milk, membranes were incubated with a specific primary antibody, washed, and incubated with horseradish peroxidase linked secondary antibody (Santa Cruz). The signals were visualized with the chemiluminescent horseradish peroxidase antibody detection reagent (Roche Molecular Biochemicals). Primary antibodies included: caspase-3 (Enzo Life Sciences), Mcl-1 and actin (Santa Cruz), Bcl-xL (BD Transduction Laboratories); Bcl-2, Bax, pro-PARP and cytochrome-c (Cell Signaling), Bak (Calbiochem), and Smac (Abgent).

[10] = target: T4, Mcl-1/Bax and Mcl-1/Bak complexes in BxPC-3 cells (Homo sapiens, UniProt Q07820); assay: Immunoprecipitation with Mcl-1 antibody, BxPC-3; type: cell-based; conditions: 4 μM, 24 h
T4 construct: endogenous in cells; host or cells: BxPC-3
T4 sequence (Q07820 whole entry, one chain of several): as the sequence (Q07820 whole entry) above
Protocol: Cell lysate (500 μg) were subjected to immunoprecipitation by adding 2.5-5 μg of anti-Mcl-1 antibody and incubation overnight at 4° C. After adding 30 μl of Protein G-agarose (Immunoprecipitation Kit, Sigma) and incubation for 4 h, the samples were centrifuged. The agarose pellet was then washed 7 times, resuspended in Laemmli buffer (Santa Cruz), and boiled for 5 min. Boiled samples were centrifuged, and supernatant was used for Western blot analysis.

[11] = system: Bax/Bak-deficient (DKO) MEFs; assay: Induction of apoptosis in MEF DKO cells; type: cell-based, murine; conditions: 10 μM, 24 h
[12] = system: activated Bax in Panc-1 cells; assay: Bax activation, 6A7 anti-Bax immunostaining, Panc-1; type: cell-based, human; conditions: 24 h
Protocol: Cells mounted on glass slides were permeabilized with PBS containing 0.3% Triton X-100, and blocked with 1% bovine serum albumin in PBS for 30 min at room temperature, followed with overnight incubation with anti-Bak 6A7 (Calbiochem) at 4° C. After thorough washing of the sections in PBS, a secondary antibody labeled with DyLight 488 (Thermo Scientific) was added and incubated for 2 h at room temperature. Nuclei were visualized with DAPI. Samples were analyzed with a FluoView 500 Confocal Laser Scanning Microscope (Olympus).

[13] = system: BxPC-3 xenograft; assay: BxPC-3 xenograft efficacy in SCID mice; type: in vivo; conditions: 60 mg/kg i.v., 5 days a week for two weeks
Protocol: For BxPC-3 subcutaneous model, 10×10^6 cells were subcutaneously injected into the flanks of 4-5 week old female severe combined immune deficient mice (ICR-SCID) (Taconic Farms) using 26 G ½ Precision Glide needles (Becton Dickinson). […] Tumors were measured twice weekly using a caliper and expressed in mg. To prevent any pain or discomfort, mice were euthanized and their tumors removed once they reached ˜1800 mg burden. […] Tumor weight was recorded throughout the treatment period using previously described methods.

[14] = system: patient bone marrow derived plasma cells; assay: Apoptosis (Annexin V-FITC/PI), multiple myeloma patient cells; type: cell-based, human
Protocol: Blood or bone marrow samples from multiple myeloma patients was obtained from treated or untreated patients after informed consent. Plasma cells were obtained after gradient density centrifugation using Ficoll Hypaque. Some samples were purified for […] population using flow cytometry. In all cases, purity of the plasma cells was higher than 90%, as assessed by morphology.
MM cell lines were cultured in six-well plates and treated as described above. At the end of the treatment the cells were washed and resuspended in annexin binding buffer (10 mM 4-(2-hydroxyethyl)-1-piperazineethanesulfonic acid pH 7.4, 140 mM NaCl, 2.5 mM CaCl2) after which Annexin V-FITC and Propodium Iodide solution was added (5 micro L each) according to manufactures protocol (BD Bioscences). Flow cytometry was performed using a FACSCanto (BD Biosciences, San Jose, Calif., USA).

[15] = mouse, in vivo, iv, 60 mg/kg

Sequence of Mcl-1 (Q07820 171-327): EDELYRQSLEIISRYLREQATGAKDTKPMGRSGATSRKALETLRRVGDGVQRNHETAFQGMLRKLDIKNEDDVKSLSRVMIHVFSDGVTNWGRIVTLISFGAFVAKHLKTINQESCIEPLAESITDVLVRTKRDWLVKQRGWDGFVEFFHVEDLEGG

O=C(O)CSc1cc(NS(=O)(=O)c2ccc(Br)cc2)c2ccccc2c1O [Compound 9, 2-((4-(4-Bromophenylsulfonamido)-1-hydroxynaphthalen-2-yl)thio)acetic acid]
fold improved binding to Mcl-1 compared to 2 [1]: 7 fold | Ki ([1]; FP and SPR based binding studies, read-out: Ki to Mcl-1): 0.49 µM | IC50 ([1]; competitive FP, Flu-BID 2 nM, Mcl-1 90 nM, read-out: Mcl-1 IC50 ± SD): 1.87 ± 0.22 µM | Ki ([1]; competitive FP, Ki calculated from IC50, read-out: Mcl-1 Ki ± SD): 0.49 ± 0.06 µM | fold lower affinity to A1/Bfl-1 than to Mcl-1 (selectivity) [2]: 11 fold | Ki ([2]; read-out: A1/Bfl-1 Ki ± SD): 5.33 ± 1 µM | fold lower affinity to Bcl-w than to Mcl-1 (selectivity) [3]: 17 fold | Ki ([3]; competitive FP, FAM-BID 2 nM, protein 40 nM, read-out: Bcl-w Ki ± SD): 8.19 ± 1.9 µM | concentration from which BL-Noxa/cellular Mcl-1 interaction is blocked [4]: ≥ 10 µM | disruption of BL-Noxa/cellular Mcl-1 interaction, result in words [4]: effectively disrupted | IC50 [5]: 3.4 ± 0.4 µM | IC50 [6]: 4.4 ± 1.3 µM | IC50 [7]: 12.5 ± 1.01 µM | early apoptotic cells ([8]; 5 μM, 24 hours): 15% | early apoptotic cells ([8]; 5 μM, 48 hours): 21% | early apoptotic cells ([8]; 10 μM, 24 hours): 21% | early apoptotic cells ([8]; 10 μM, 48 hours): 49% | concentration from which cytochrome c and Smac are released [9]: ≥ 10 µM | inhibition of endogenous interactions of Bax and Bak with Mcl-1 [10]: complete inhibition | apoptotic cells in MEF DKO cells [11]: 16% | concentration from which activated Bax increases [12]: ≥ 5 µM | tumor growth inhibition ([13]; day 19 (p<0.0001)): 65% | tumor growth inhibition ([13]; day 22 (p<0.003)): 56% | apoptotic cells, early event ([14]; Pt 90620372, treated): 10.1% | apoptotic cells, late event ([14]; Pt 90620372, treated): 19.8% | apoptotic cells, early events ([14]; Pt 957034714, treated): 32.9% | apoptotic cells, late events ([14]; Pt 957034714, treated): 62.9% | apoptotic cells, early events ([14]; Pt 957060476, treated): 13.3% | apoptotic cells, late events ([14]; Pt 957060476, treated): 26.6% | histopathology (H&E) of normal tissues [15]: did not cause damage to tested tissues from kidney, liver and pancreas
